Reference: patent EP1561465A2, “Methods of use of fluoroquinolone compounds against bacteria” (LG Life Sciences, Ltd., priority 1999, dated 2001)
Values after ≈ are worked out from the molar mass of the structure shown.

Columns and labels:
Assay type in all cases: cell-based
[1] = system: Yersinia enterocolitica; experiment: MIC by agar dilution (NCCLS M7-A4), 288 enteropathogenic isolates, eight quinolones; conditions: Yersinia enterocolitica (n = 22)
[2] = system: Aeromonas spp.; experiment: as above; conditions: Aeromonas spp. (n = 16)
[3] = system: Campylobacter jejuni; experiment: MIC by agar dilution (NCCLS M7-A4), 5% sheep blood, microaerophilic 48 h; conditions: Campylobacter jejuni (n=91)
[4] = system: Moraxella catarrhalis; experiment: MIC by agar dilution (NCCLS), 411 isolates Buenos Aires 1998-99
[5] = system: Streptococcus pyogenes; experiment: as above; conditions: Streptococcus pyogenes (n = 69)
[6] = system: Haemophilus influenzae; experiment: MIC by broth microdilution (NCCLS), dried MicroScan panels, clinical isolates 1998-1999; conditions: for MIC90: Haemophilus influenzae
[7] = system: Acinetobacter spp.; experiment: MIC by agar dilution (NCCLS), 322 nosocomial Gram negative isolates, Athens 1998; conditions: n = 38 strains; for MIC50 / MIC90: Acinetobacter
[8] = Haemophilus influenzae (300 isolates)

| SMILES | % Susceptible [1] | MIC50 [1] | MIC90 [1] | MIC Range [1] | % Susceptible [2] | MIC50 [2] | MIC90 [2] | MIC Range [2] | % Susceptible [3] | MIC50 [3] | MIC90 [3] | MIC50 [6, 8] | MIC Range [6, 8] | MIC90 [6, 8] | MIC90 ([6]; β-lactamase negative (234)) | MIC90 ([6]; β-lactamase positive (66)) | MIC50 [7] | MIC90 [7] | MIC Range [7] | other results |
| --- | --- | --- | --- | --- | --- | --- | --- | --- | --- | --- | --- | --- | --- | --- | --- | --- | --- | --- | --- | --- |
| CC1COc2c(N3CCN(C)CC3)c(F)cc3c(=O)c(C(=O)O)cn1c23 (stereo not shown) [Ofloxacin, ofloxacin] | 100% | 0.12 µg/mL (≈ 0.332 µM) | 0.12 µg/mL (≈ 0.332 µM) | 0.03 to 0.5 µg/mL | 100% | ≤ 0.015 µg/mL | 0.03 µg/mL (≈ 0.083 µM) | ≤0.015 to 0.12 µg/mL | 31.86% | 16 µg/mL (≈ 44.3 µM) | 32 µg/mL (≈ 88.6 µM) | ≤ 0.06 µg/mL | ≤0.06 to 0.5 µg/mL | ≤ 0.06 µg/mL | ≤ 0.06 µg/mL | 0.12 µg/mL (≈ 0.332 µM) | 8 µg/mL (≈ 22.1 µM) | 64 µg/mL (≈ 177 µM) | 0.125 to 64 µg/mL | MIC90 ([4]; Moraxella catarrhalis): 0.125 µg/mL (≈ 0.346 µM); MIC Range ([4]; Moraxella catarrhalis (n = 59)): 0.06 to 0.125 µg/mL; MIC Range [5]: 0.5 to 4 µg/mL; MIC90 ([5]; read-out: MIC90): 2 µg/mL (≈ 5.53 µM) |
| Cc1c(F)c(N2CCNC(C)C2)cc2c1c(=O)c(C(=O)O)cn2C1CC1 (stereo not shown) [Grepafloxacin, grepafloxacin] | 100% | 0.03 µg/mL (≈ 0.0835 µM) | 0.03 µg/mL (≈ 0.0835 µM) | ≤0.015 to 0.25 µg/mL | 100% | 0.03 µg/mL (≈ 0.0835 µM) | 0.06 µg/mL (≈ 0.167 µM) | ≤0.015 to 0.12 µg/mL | 31.86% | 32 µg/mL (≈ 89 µM) | 64 µg/mL (≈ 178 µM) | ≤ 0.015 µg/mL | ≤0.015 to 0.12 µg/mL | ≤ 0.015 µg/mL | ≤ 0.015 µg/mL | 0.03 µg/mL (≈ 0.0835 µM) | 2 µg/mL (≈ 5.56 µM) | 64 µg/mL (≈ 178 µM) | ≤0.03 to 64 µg/mL | MIC Range [3]: 0.03 to 128 µg/mL |
